{
  "source": "patent US10751396B2",
  "about": "“Early hyperlipidemia promotes endothelial activation via a caspase-1-sirtuin 1 pathway” (Temple University—Of The Commonwealth System of Higher …, priority 2015, dated 2020)",
  "format_in_all_cases": "cell-based, human",
  "key": {"caspase-1": {"system": "caspase-1", "assay": "Caspase-1 activity assay (FAM-YVAD-FMK, flow cytometry) in HAECs", "conditions": "for oxLDL-induced caspase-1 activation with ROS inhibitors: Allopurinol 1 mmol/L, Apocynin 100 μM added 1 hour before oxLDL (100 μg/mL) 6 hours", "experimental": "(§1) Active caspase-1 level was determined with APO LOGIX kit (Cell Tech., Mountain View, Calif.). The kit contains a carboxyfluorescein (FAM) [Excitation/Emission (nm):490/520]-labeled peptide fluoromethyl ketone (FMK) caspase-1 inhibitor (FAM-YVAD-FMK), which irreversibly binds to active caspase-1. All procedures were performed according to the manufacturer's instruction. Briefly, HAECs (≤passage 9) were cultured in 6-well plates and serum starved overnight to quiescent the cells before treatment. Next day, HAECs were treated with indicated stimuli for 6 hr. Cells were then digested by trypsin-EDTA and suspended at 1×10^6 cells/ml. 150 μl of cell suspension were incubated at 37° C. with 1× FAM-YVAD-FMK for 1 hour then washed with 1× washing buffer. Unfixed caspase-1 stained cells were then incubated with 7-aminoactinomycin D (7-AAD; cell membrane integrity marker) (BD Pharmingen, San Diego, Calif.) for no more than 10 min before analysis. The Calibur flow cytometer (BD Biosciences, San Jose, Calif.) was used to determine caspase-1 active (Caspase-1^+) and 7-AAD^+ cells. Data were analyzed with the FlowJo software (Tree Star, Ashland, Oreg.).\nActive caspase-1 levels were determined with an APO LOGIX kit (Cell Technology, Mountain View, Calif.). The kit contained a carboxyfluorescein (FAM) (excitation/emission (nm): 490/520)-labeled peptide fluoromethyl ketone (FMK) caspase-1 inhibitor (FAM-YVAD-FMK), which irreversibly binds to active caspase-1. The procedures were performed according to the manufacturer's instructions. HAECs were cultured in 6-well dishes and serum-starved overnight to ensure quiescence of the cells before treatment. The next day, HAECs were treated with the indicated stimuli for 6 h. Cells were harvested and suspended at 1×10^6 cells/ml. The cell suspension (150 μl) was incubated in 37° C. with 1× FAM-YVAD-FMK for 1 h. After being washed with 1× washing buffer, the cells were fixed with fixative buffer and stored in 4° C. for up to 24 h. To determine the cell membrane integrity, the unfixed cells were stained with 7-AAD (Pharmingen) (0.25 μg/test) and incubated for no more than 10 min before analysis.\nAll flow cytometric data were analyzed by using the FlowJo software (Tree Star, Ashland, Oreg.). The uncompensated data were collected from the flow cytometer (either FACSCalibur flow cytometer or LSRII flow cytometer; BD Biosciences). Forward and side scatter gates were used to select live cell populations from clumps and debris. The positive gating was determined by its matched IgG control, and single staining was used to determine the compensation parameter. Different gates were established to analyze the data according to cell size as described in our figures."}, "Sirt1": {"system": "Sirt1", "assay": "Sirt1 cleavage in oxLDL-treated HAECs by Western blot", "conditions": "agent added 1 hour before oxLDL (100 μg/mL, 24 hours)", "source_text": "FIG. 8, comprising FIG. 8A through FIG. 8C, depicts experimental results showing hyperlipidemia/dyslipidemia decreases sirtuin 1 (Sirt1) expression in ApoE^−/− mouse aorta and induces Sirt1 cleavage in human aortic endothelial cells (ECs) through caspase-1 (casp-1) activation. FIG. 8A depicts Casp-1 deficiency results in Sirt1 accumulation in mouse aorta in ApoE^−/−/Casp-1^−/− mice. ApoE^−/− mice and ApoE^−/−/Casp-1^−/− mice were fed with a high fat (HF) diet for 3 weeks. Mouse aortic tissues were collected for uncleaved Sirt1 protein expression analysis by Western blot with the specific antibody (left panel). The quantification of Sirt1 expression in the Western blot was presented after normalized with the expression of β-actin in the same sample (right panel). FIG. 8B depicts oxidized low-density lipoprotein (OxLDL) induces Sirt1 cleavage in human aortic endothelial cells (HAECs). HAECs were cultured and treated with oxLDL (100 μg/mL) for 24 hours. […] The protein lysates were collected, and cleaved-Sirt1 expression was determined by Western blot with anti-Sirt1 antibody. The relative changes of Sirt1 expression normalized by β-actin (ratios) were calculated based on the ratios of Sirt1 expression levels in treated samples over that in nontreated samples. […]"}, "[1]": {"system": "alpha actin and calponin RNA transcripts in HAVSMCs", "assay": "Contractile marker RNA in HAVSMCs exposed to uremic serum (quantitative RT-PCR)", "conditions": "HAVSMC, 10% pooled CKD sera 24 hours, compared to non-treated controls", "experimental": "FIG. 29 depicts experimental results showing the exposure of human aortic vascular smooth muscle cells (HAVSMCs) to uremic serum decreases the expression of contractile marker RNA transcripts, which is reversed by the inhibition of caspase-1. HAVSMCs were grown to sub-confluence and were serum starved for 24 hours and exposed to 10% pooled uremic sera from CKD patients (CKD PS) with and without Caspase-1 Inhibitor (Casp1 inh) for another 24 hours. The RNA was extracted, was reverse transcribed into cDNA, and the expression of smooth muscle contractile marker RNA transcripts (alpha actin and calponin) was measured by quantitative RT-PCR using the Applied Biosystems 7500, Taqman primers and probes. The relative quantification of gene RNA expression is presented after being normalized with the expression of a house-keeping gene. *P value<0.005.\nBlood samples were obtained from 6 healthy donors with normal kidney function and 20 patients with end stage renal disease who were on hemodialysis. […]\nTotal RNA from cultured cells was extracted using the RNeasy kit (Qiagen, Valencia, Calif.), and cDNA was synthesized with the VILO first-strand synthesis system (Invitrogen, Grand Island, N.Y.). […] Relative gene expression levels were calculated after normalization with the internal control eukaryotic 18S gene using the 2^−deltadeltaCt method, where Ct is the threshold value."}, "HAECs": {"system": "HAECs", "assay": "Caspase-1/7-AAD co-staining for pyroptosis in HAECs", "conditions": "HAECs, 6-hour stimulation; oxLDL 100 μg/mL, LPA 100 μM, LPC 15 μM", "experimental": "FIG. 7, comprising FIG. 7A through FIG. 7D, depicts experimental results showing Oxidized low-density lipoprotein (oxLDL) and its components induce caspase-1 (casp-1) activation in human aortic endothelial cells (HAECs) via a reactive oxygen species (ROS)-mediated p-athway. FIG. 7A depicts pyroptotic cell death in HAECs caused by activation of casp-1 induced by oxLDL and its components. HAECs were cultured and treated with low-density lipoprotein (LDL; 100 μg/mL), oxLDL (100 μg/mL), oxLDL-derivatives lysophosphatidic acid (LPA, 100 μM), or lysophosphatidylcholine (LPC, 15 μM) as indicated for 6 hours. Casp-1 activity was determined by a commercial kit, and 7-aminoactinomycin D (7-AAD) fluorescence dye was used to determine the cell membrane integrity. Casp-1^+/7-AAD^+ cells were gated as pyrototic cells (Q3), casp-1^+ single positive cells (Q2) were gated as inflammatory cells, and 7-AAD^+ single positive cells (Q4) were gated as necrotic cells. FIG. 7B depicts ROS levels in pyroptotic cells. ROS levels were determined by dihydroethidium (DHE) fluorescence dye staining, and the mean fluorescence intensity (MFI) of DHE^+ cell fraction was determined. […] Allopurinol (1 mmol/L) and Apocynin (100 μM) were added 1 hour before oxLDL treatment. HAECs were then treated with oxLDL (100 μg/mL) for 6 hours and stained for caspase-1 activity. FIG. 7D depicts mRNA upregulation of inflammasome components, including NLRP1 (Nod-like receptor protein 1), NLRP3 (Nod-like receptor 3), PYCARD (or ASC, inflammasome adaptor apoptosis-associated speck-like protein containing a CARD), caspase-1, and IL-1β (interleukin-1β) in HAECs treated with oxLDL. Data are expressed as mean±SE. *P<0.05, changes with statistical significance.\nas §1\nActive caspase-1 levels were determined with an APO LOGIX kit (Cell Technology, Mountain View, Calif.). The kit contained a carboxyfluorescein (FAM) (excitation/emission (nm): 490/520)-labeled peptide fluoromethyl ketone (FMK) caspase-1 inhibitor (FAM-YVAD-FMK), which irreversibly binds to active caspase-1. The procedures were performed according to the manufacturer's instructions. HAECs were cultured in 6-well dishes and serum-starved overnight to ensure quiescence of the cells before treatment. The next day, HAECs were treated with the indicated stimuli for 6 h. Cells were harvested and suspended at 1×10^6 cells/ml. […]"}},
  "note": "Residues, ends and D or L forms follow the SMILES beside them. *: point of attachment. Cbz = O=C(OCc1ccccc1)*",
  "data": [
    {"molecule": "Oc1ncnc2[nH]ncc12", "note": "[Allopurinol]", "values": [
      {"measurement": "oxLDL-induced caspase-1 activation with ROS inhibitors", "setting": "caspase-1", "result": "attenuation of oxLDL-induced caspase-1 activation"}
    ]},
    {"molecule": "COc1cc(C(C)=O)ccc1O", "note": "[Apocynin]", "values": [
      {"measurement": "oxLDL-induced caspase-1 activation with ROS inhibitors", "setting": "caspase-1", "result": "attenuation of oxLDL-induced caspase-1 activation"}
    ]},
    {"molecule": "CC(C)C[C@@H](C=O)NC(=O)[C@H](CC(C)C)NC(=O)[C@H](CC(C)C)NC(=O)OCc1ccccc1", "note": "[MG-132] (Cbz-Leu-Leu-Leu-aldehyde)", "values": [
      {"measurement": "oxLDL-induced Sirt1 cleavage with inhibitor", "setting": "Sirt1", "result": "inhibited"}
    ]},
    {"molecule": "CC(C)c1cc(/C=C(\\C#N)C(=O)NCCCc2ccccc2)cc(C(C)C)c1O", "note": "[SU1498]", "values": [
      {"measurement": "caspase-1 activation after VEGFR-2 inhibition", "setting": "caspase-1; HAECs pretreated with SU1498, then LPC (30 μM) 6 h after overnight serum starvation", "result": "increases caspase-1 activation"}
    ]},
    {"molecule": "COC(=O)C[C@H](NC(=O)[C@H](C)NC(=O)[C@@H](NC(=O)[C@H](Cc1ccc(O)cc1)NC(=O)OCc1ccccc1)C(C)C)C(=O)CF", "note": "[Z-YVAD-FMK]", "values": [
      {"measurement": "relative quantification of alpha-actin RNA", "setting": "[1]", "result": 0.588},
      {"measurement": "relative quantification of calponin RNA", "setting": "[1]", "result": 0.601}
    ]},
    {"molecule": "RQIKIWFQNRRMKWKKGYRDNLLFGAEIITNGFHSC (N-terminal protein transduction sequence; listed as Homo sapiens) [NC-Sirt1]", "values": [
      {"measurement": "oxLDL-induced Sirt1 cleavage with inhibitor", "setting": "Sirt1", "result": "dose-dependently decreases"}
    ]},
    {"molecule": "mono-acylsn-glycero-3-phosphate [LPA]", "values": [
      {"measurement": "caspase-1 activation in larger size of HAECs", "setting": "caspase-1; 6 h, oxLDL (100 μM), LPA (30 μM), LPC (30 μM), large FSC gate", "result": 54.4, "unit": "%"},
      {"measurement": "caspase-1 activation in smaller size of HAECs", "setting": "caspase-1; 6 h, oxLDL (100 μM), LPA (30 μM), LPC (30 μM), small FSC gate", "result": 25.2, "unit": "%"},
      {"measurement": "induction of inflammation, pyroptosis and necrosis (caspase-1/7-AAD gating)", "setting": "HAECs", "result": "induced inflammation, inflammatory cell death (pyroptosis), and necrosis"}
    ]}
  ]
}
